In brackets after ≈: the same amount, converted by molar mass.
What was measured:
[1] = test system: Pseudomonas aeruginosa; test: Antibacterial activity against Pseudomonas aeruginosa PAO1 by microbroth dilution method; assay type: functional
[2] = test system: Proteus vulgaris; test: Antibacterial activity against Proteus vulgaris ATCC 33420 by microbroth dilution method; assay type: functional
[3] = test system: Burkholderia cepacia; test: Antibacterial activity against Burkholderia cepacia ATCC 25416 by microbroth dilution method; assay type: functional
[4] = test system: Staphylococcus aureus; test: Antibacterial activity against methicillin-resistant Staphylococcus aureus NRS70 by microbroth dilution method; assay type: functional; conditions: Staphylococcus aureus, NRS70; read-out: MIC
[5] = test system: Acinetobacter baumannii; test: Antibacterial activity against Acinetobacter baumannii ATCC 19606 by microbroth dilution method; assay type: functional, ATCC 19606 = CIP 70.34 = JCM 6841; conditions: Acinetobacter baumannii, ATCC 19606 = CIP 70.34 = JCM 6841; read-out: MIC
[6] = test system: Proteus mirabilis; test: Antibacterial activity against Proteus mirabilis ATCC 25933 by microbroth dilution method; assay type: functional
[7] = test system: Mycobacterium tuberculosis; test: Antitubercular activity against Mycobacterium tuberculosis H37Rv by microbroth dilution method; assay type: functional; conditions: Mycobacterium tuberculosis, H37Rv; read-out: MIC
[8] = test system: Streptococcus pneumoniae; test: Antibacterial activity against Streptococcus pneumoniae R6 by microbroth dilution method; assay type: functional; conditions: Streptococcus pneumoniae, R6; read-out: MIC
[9] = test system: Bacillus subtilis; test: Antibacterial activity against Bacillus subtilis ATCC 23857 by microbroth dilution method; assay type: functional; conditions: Bacillus subtilis, ATCC 23857; read-out: MIC
[10] = test system: Bacillus anthracis; test: Antibacterial activity against Bacillus anthracis Sterne 34F2 by microbroth dilution method; assay type: functional; conditions: Bacillus anthracis, Sterne 34F2; read-out: MIC
[11] = test system: Escherichia coli; test: Antibacterial activity against Escherichia coli K-12 by microbroth dilution method; assay type: functional
[12] = test system: Escherichia coli; test: Antibacterial activity against Escherichia coli harboring TolC deletion mutant by microbroth dilution method; assay type: functional; conditions: Escherichia coli; read-out: MIC
[13] = test system: Staphylococcus aureus; test: Antibacterial activity against methicillin-sensitive Staphylococcus aureus ATCC 29213 by microbroth dilution method; assay type: functional; conditions: Staphylococcus aureus, ATCC 29213; read-out: MIC
[14] = test system: Streptococcus pyogenes; test: Antibacterial activity against Streptococcus pyogenes ATCC 700294 by microbroth dilution method; assay type: functional; conditions: Streptococcus pyogenes, ATCC 700294; read-out: MIC
[15] = test system: Klebsiella pneumoniae; test: Antibacterial activity against Klebsiella pneumoniae ATCC 33495 by microbroth dilution method; assay type: functional
[16] = test system: Enterococcus faecalis; test: Antibacterial activity against Enterococcus faecalis ATCC 33186 by microbroth dilution method; assay type: functional; conditions: Enterococcus faecalis, ATCC 33186; read-out: MIC

COc1ccc2cc1Oc1cc(ccc1OC)CCC(N)CCCC2 (stereo not given)
MIC [1]: > 100 µg/mL | MIC [2]: > 100 µg/mL | MIC [3]: > 100 µg/mL | MIC [4]: 200 µg/mL (≈ 586 µM) | MIC [5]: 200 µg/mL (≈ 586 µM) | MIC [6]: > 100 µg/mL | MIC [7]: 200 µg/mL (≈ 586 µM) | MIC [8]: 200 µg/mL (≈ 586 µM) | MIC [9]: 100 µg/mL (≈ 293 µM) | MIC [10]: 100 µg/mL (≈ 293 µM) | MIC [11]: 200 µg/mL (≈ 586 µM) | MIC [12]: 100 µg/mL (≈ 293 µM) | MIC [13]: 200 µg/mL (≈ 586 µM) | MIC [14]: 200 µg/mL (≈ 586 µM) | MIC [15]: > 100 µg/mL | MIC [16]: 200 µg/mL (≈ 586 µM)

COc1ccc2cc1Oc1cc(ccc1OC)CCC(NCCCCc1ccccc1)CCCC2 (stereo not given)
MIC [1]: > 100 µg/mL | MIC [2]: > 100 µg/mL | MIC [3]: > 100 µg/mL | MIC [4]: 25 µg/mL (≈ 52.8 µM) | MIC [5]: 100 µg/mL (≈ 211 µM) | MIC [6]: > 100 µg/mL | MIC [7]: 25 µg/mL (≈ 52.8 µM) | MIC [8]: 50 µg/mL (≈ 106 µM) | MIC [9]: 12.5 µg/mL (≈ 26.4 µM) | MIC [10]: 50 µg/mL (≈ 106 µM) | MIC [11]: > 100 µg/mL | MIC [12]: 12.5 µg/mL (≈ 26.4 µM) | MIC [13]: 25 µg/mL (≈ 52.8 µM) | MIC [14]: 12.5 µg/mL (≈ 26.4 µM) | MIC [15]: > 100 µg/mL | MIC [16]: 25 µg/mL (≈ 52.8 µM)

COc1ccc2cc1Oc1cc(ccc1OC)CCC(NCCCc1ccccc1)CCCC2 (stereo not given)
MIC [1]: > 100 µg/mL | MIC [2]: > 100 µg/mL | MIC [3]: > 100 µg/mL | MIC [4]: 25 µg/mL (≈ 54.4 µM) | MIC [5]: 50 µg/mL (≈ 109 µM) | MIC [6]: > 100 µg/mL | MIC [7]: 50 µg/mL (≈ 109 µM) | MIC [8]: 50 µg/mL (≈ 109 µM) | MIC [9]: 25 µg/mL (≈ 54.4 µM) | MIC [10]: 50 µg/mL (≈ 109 µM) | MIC [11]: > 100 µg/mL | MIC [12]: 12.5 µg/mL (≈ 27.2 µM) | MIC [13]: 25 µg/mL (≈ 54.4 µM) | MIC [14]: 50 µg/mL (≈ 109 µM) | MIC [15]: > 100 µg/mL | MIC [16]: 25 µg/mL (≈ 54.4 µM)

COc1ccc2cc1Oc1cc(ccc1OC)CCC(NCCc1ccccc1F)CCCC2 (stereo not given)
MIC [1]: > 100 µg/mL | MIC [2]: > 100 µg/mL | MIC [3]: > 100 µg/mL | MIC [4]: 25 µg/mL (≈ 53.9 µM) | MIC [5]: 100 µg/mL (≈ 216 µM) | MIC [6]: > 100 µg/mL | MIC [7]: 25 µg/mL (≈ 53.9 µM) | MIC [8]: 50 µg/mL (≈ 108 µM) | MIC [9]: 12.5 µg/mL (≈ 27 µM) | MIC [10]: 50 µg/mL (≈ 108 µM) | MIC [11]: > 100 µg/mL | MIC [12]: 25 µg/mL (≈ 53.9 µM) | MIC [13]: 50 µg/mL (≈ 108 µM) | MIC [14]: 50 µg/mL (≈ 108 µM) | MIC [15]: > 100 µg/mL | MIC [16]: 25 µg/mL (≈ 53.9 µM)

COc1ccc2cc1Oc1cc(ccc1OC)CCC(NCCc1ccc(O)cc1)CCCC2 (stereo not given)
MIC [1]: > 100 µg/mL | MIC [2]: > 100 µg/mL | MIC [3]: > 100 µg/mL | MIC [4]: 100 µg/mL (≈ 217 µM) | MIC [5]: > 100 µg/mL | MIC [6]: > 100 µg/mL | MIC [7]: 100 µg/mL (≈ 217 µM) | MIC [8]: 100 µg/mL (≈ 217 µM) | MIC [9]: 50 µg/mL (≈ 108 µM) | MIC [10]: 50 µg/mL (≈ 108 µM) | MIC [11]: > 100 µg/mL | MIC [12]: 100 µg/mL (≈ 217 µM) | MIC [13]: > 100 µg/mL | MIC [14]: 100 µg/mL (≈ 217 µM) | MIC [15]: > 100 µg/mL | MIC [16]: 100 µg/mL (≈ 217 µM)

CCCCCCNC1CCCCc2ccc(OC)c(c2)Oc2cc(ccc2OC)CC1 (stereo not given)
MIC [7]: 12.5 to 50 µg/mL (≈ 29.4 to 117 µM)

COc1ccc(CCNC2CCCCc3ccc(OC)c(c3)Oc3cc(ccc3OC)CC2)cc1OC (stereo not given)
MIC [1]: > 100 µg/mL | MIC [2]: > 100 µg/mL | MIC [3]: > 100 µg/mL | MIC [4]: > 100 µg/mL | MIC [5]: > 100 µg/mL | MIC [6]: > 100 µg/mL | MIC [7]: 100 µg/mL (≈ 198 µM) | MIC [8]: > 100 µg/mL | MIC [9]: > 100 µg/mL | MIC [10]: > 100 µg/mL | MIC [11]: > 100 µg/mL | MIC [12]: > 100 µg/mL | MIC [13]: > 100 µg/mL | MIC [14]: > 100 µg/mL | MIC [15]: > 100 µg/mL | MIC [16]: > 100 µg/mL

COc1ccc2cc1Oc1cc(ccc1OC)CCC(NCCc1cccc(F)c1)CCCC2 (stereo not given)
MIC [1]: > 100 µg/mL | MIC [2]: > 100 µg/mL | MIC [3]: > 100 µg/mL | MIC [4]: 25 µg/mL (≈ 53.9 µM) | MIC [5]: 50 µg/mL (≈ 108 µM) | MIC [6]: > 100 µg/mL | MIC [7]: 25 µg/mL (≈ 53.9 µM) | MIC [8]: 50 µg/mL (≈ 108 µM) | MIC [9]: 12.5 µg/mL (≈ 27 µM) | MIC [10]: 50 µg/mL (≈ 108 µM) | MIC [11]: > 100 µg/mL | MIC [12]: 25 µg/mL (≈ 53.9 µM) | MIC [13]: 50 µg/mL (≈ 108 µM) | MIC [14]: 50 µg/mL (≈ 108 µM) | MIC [15]: > 100 µg/mL | MIC [16]: 25 µg/mL (≈ 53.9 µM)

COc1ccc2cc1Oc1cc(ccc1OC)CCC(NCCc1ccccn1)CCCC2 (stereo not given)
MIC [1]: > 100 µg/mL | MIC [2]: > 100 µg/mL | MIC [3]: > 100 µg/mL | MIC [4]: > 100 µg/mL | MIC [5]: > 100 µg/mL | MIC [6]: > 100 µg/mL | MIC [7]: 100 µg/mL (≈ 224 µM) | MIC [8]: 100 µg/mL (≈ 224 µM) | MIC [9]: 100 µg/mL (≈ 224 µM) | MIC [10]: > 100 µg/mL | MIC [11]: > 100 µg/mL | MIC [12]: 100 µg/mL (≈ 224 µM) | MIC [13]: > 100 µg/mL | MIC [14]: > 100 µg/mL | MIC [15]: > 100 µg/mL | MIC [16]: > 100 µg/mL

COc1ccc2cc1Oc1cc(ccc1OC)CCC(NCCc1ccc3c(c1)OCO3)CCCC2 (stereo not given)
MIC [1]: > 100 µg/mL | MIC [2]: > 100 µg/mL | MIC [3]: > 100 µg/mL | MIC [4]: 25 µg/mL (≈ 51.1 µM) | MIC [5]: > 100 µg/mL | MIC [6]: > 100 µg/mL | MIC [7]: 25 µg/mL (≈ 51.1 µM) | MIC [8]: 50 µg/mL (≈ 102 µM) | MIC [9]: 12.5 µg/mL (≈ 25.5 µM) | MIC [10]: 50 µg/mL (≈ 102 µM) | MIC [11]: > 100 µg/mL | MIC [12]: 12.5 µg/mL (≈ 25.5 µM) | MIC [13]: 50 µg/mL (≈ 102 µM) | MIC [14]: 12.5 µg/mL (≈ 25.5 µM) | MIC [15]: > 100 µg/mL | MIC [16]: 50 µg/mL (≈ 102 µM)
